Reference: paper PMC6873183, “Mechanically activated Piezo1 channels of cardiac fibroblasts stimulate p38 mitogen-activated protein kinase activity and interleukin-6 secretion” (The Journal of Biological Chemistry, 2019)

How the values were obtained:
[1] = molecular target: T1, Piezo1 (human cardiac fibroblasts, endogenous) (Homo sapiens, UniProt Q92508); experiment: Fura-2 intracellular Ca2+ assay, 96-well plate reader; format: cell-based; details: activator (agonist); native human cardiac fibroblasts; 2.5 mM probenecid, 1.5 mM CaCl2, pH 7.4; estimate, Yoda1 limited to 10 μM by solubility
T1 construct: endogenous full-length channel in cultured human atrial cardiac fibroblasts; Yoda1 response reduced by Piezo1 siRNA

mouse Piezo1 = molecular target: T2, mouse Piezo1 (Mus musculus, UniProt E2JF22); experiment: as above; format: cell-based
T2 construct: the Dooku1 and ruthenium red rows are from native C57BL/6J cardiac fibroblasts
T2 sequence (E2JF22 whole entry): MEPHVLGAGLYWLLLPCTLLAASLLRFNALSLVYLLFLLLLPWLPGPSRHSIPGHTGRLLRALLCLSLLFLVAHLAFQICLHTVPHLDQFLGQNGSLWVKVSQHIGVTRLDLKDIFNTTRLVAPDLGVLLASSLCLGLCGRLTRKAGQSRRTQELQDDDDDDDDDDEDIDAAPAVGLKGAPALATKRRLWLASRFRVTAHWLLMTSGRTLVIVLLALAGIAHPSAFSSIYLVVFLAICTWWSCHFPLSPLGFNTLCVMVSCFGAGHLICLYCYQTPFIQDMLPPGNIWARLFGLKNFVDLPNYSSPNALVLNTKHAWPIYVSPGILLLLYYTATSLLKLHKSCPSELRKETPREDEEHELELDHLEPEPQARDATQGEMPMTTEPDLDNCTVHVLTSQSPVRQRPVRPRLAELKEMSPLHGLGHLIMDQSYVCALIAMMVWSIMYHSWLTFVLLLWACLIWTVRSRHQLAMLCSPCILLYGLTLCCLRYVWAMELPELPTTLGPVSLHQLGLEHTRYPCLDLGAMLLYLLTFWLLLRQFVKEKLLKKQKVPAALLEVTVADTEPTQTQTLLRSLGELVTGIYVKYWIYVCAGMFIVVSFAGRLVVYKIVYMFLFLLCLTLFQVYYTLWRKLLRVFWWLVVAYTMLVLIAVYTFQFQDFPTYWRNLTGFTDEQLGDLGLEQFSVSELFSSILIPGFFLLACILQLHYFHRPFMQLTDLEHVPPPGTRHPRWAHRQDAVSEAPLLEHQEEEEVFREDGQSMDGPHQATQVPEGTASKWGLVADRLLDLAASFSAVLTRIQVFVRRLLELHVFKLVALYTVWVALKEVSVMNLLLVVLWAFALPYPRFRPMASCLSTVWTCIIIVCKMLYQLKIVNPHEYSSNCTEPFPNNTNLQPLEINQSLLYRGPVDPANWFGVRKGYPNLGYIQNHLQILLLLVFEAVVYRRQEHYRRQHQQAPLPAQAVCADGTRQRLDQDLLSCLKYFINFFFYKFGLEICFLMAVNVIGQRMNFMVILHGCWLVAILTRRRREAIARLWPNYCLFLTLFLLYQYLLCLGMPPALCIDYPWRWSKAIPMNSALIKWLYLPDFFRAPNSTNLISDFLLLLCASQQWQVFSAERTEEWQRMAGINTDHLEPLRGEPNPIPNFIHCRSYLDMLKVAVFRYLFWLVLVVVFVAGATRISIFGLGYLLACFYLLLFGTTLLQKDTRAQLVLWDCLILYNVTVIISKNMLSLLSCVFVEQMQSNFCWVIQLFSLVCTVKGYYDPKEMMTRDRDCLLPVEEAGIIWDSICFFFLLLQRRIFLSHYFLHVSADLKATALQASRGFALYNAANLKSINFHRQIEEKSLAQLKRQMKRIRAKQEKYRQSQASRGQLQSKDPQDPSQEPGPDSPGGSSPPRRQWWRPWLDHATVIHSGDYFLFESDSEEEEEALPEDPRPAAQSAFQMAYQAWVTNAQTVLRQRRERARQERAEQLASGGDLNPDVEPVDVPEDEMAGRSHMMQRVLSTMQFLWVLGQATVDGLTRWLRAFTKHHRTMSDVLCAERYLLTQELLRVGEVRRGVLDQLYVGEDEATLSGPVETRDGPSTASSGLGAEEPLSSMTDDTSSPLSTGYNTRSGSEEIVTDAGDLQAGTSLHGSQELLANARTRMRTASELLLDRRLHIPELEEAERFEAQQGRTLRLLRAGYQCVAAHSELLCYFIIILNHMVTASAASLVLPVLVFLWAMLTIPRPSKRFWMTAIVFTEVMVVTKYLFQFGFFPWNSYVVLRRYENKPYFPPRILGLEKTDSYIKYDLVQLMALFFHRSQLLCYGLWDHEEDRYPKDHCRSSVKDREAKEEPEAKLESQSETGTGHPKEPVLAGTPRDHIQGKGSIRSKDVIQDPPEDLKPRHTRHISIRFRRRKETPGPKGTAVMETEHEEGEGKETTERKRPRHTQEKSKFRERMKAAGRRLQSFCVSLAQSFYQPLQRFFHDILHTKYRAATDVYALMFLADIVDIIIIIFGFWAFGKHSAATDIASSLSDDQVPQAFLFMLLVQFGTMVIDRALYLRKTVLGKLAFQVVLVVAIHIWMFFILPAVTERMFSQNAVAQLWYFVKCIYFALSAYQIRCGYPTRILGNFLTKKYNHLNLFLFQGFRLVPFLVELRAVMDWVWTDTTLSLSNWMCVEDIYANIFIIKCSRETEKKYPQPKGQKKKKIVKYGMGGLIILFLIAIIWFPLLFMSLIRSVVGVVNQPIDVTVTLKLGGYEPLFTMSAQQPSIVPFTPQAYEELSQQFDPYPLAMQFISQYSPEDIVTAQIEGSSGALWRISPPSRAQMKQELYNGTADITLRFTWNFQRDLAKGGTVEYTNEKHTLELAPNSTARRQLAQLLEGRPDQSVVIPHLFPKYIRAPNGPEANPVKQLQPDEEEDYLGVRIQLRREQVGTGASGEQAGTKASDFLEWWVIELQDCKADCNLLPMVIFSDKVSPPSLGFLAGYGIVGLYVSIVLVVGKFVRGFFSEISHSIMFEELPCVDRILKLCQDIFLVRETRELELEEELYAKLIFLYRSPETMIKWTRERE

T1 sequence (Q92508 whole entry): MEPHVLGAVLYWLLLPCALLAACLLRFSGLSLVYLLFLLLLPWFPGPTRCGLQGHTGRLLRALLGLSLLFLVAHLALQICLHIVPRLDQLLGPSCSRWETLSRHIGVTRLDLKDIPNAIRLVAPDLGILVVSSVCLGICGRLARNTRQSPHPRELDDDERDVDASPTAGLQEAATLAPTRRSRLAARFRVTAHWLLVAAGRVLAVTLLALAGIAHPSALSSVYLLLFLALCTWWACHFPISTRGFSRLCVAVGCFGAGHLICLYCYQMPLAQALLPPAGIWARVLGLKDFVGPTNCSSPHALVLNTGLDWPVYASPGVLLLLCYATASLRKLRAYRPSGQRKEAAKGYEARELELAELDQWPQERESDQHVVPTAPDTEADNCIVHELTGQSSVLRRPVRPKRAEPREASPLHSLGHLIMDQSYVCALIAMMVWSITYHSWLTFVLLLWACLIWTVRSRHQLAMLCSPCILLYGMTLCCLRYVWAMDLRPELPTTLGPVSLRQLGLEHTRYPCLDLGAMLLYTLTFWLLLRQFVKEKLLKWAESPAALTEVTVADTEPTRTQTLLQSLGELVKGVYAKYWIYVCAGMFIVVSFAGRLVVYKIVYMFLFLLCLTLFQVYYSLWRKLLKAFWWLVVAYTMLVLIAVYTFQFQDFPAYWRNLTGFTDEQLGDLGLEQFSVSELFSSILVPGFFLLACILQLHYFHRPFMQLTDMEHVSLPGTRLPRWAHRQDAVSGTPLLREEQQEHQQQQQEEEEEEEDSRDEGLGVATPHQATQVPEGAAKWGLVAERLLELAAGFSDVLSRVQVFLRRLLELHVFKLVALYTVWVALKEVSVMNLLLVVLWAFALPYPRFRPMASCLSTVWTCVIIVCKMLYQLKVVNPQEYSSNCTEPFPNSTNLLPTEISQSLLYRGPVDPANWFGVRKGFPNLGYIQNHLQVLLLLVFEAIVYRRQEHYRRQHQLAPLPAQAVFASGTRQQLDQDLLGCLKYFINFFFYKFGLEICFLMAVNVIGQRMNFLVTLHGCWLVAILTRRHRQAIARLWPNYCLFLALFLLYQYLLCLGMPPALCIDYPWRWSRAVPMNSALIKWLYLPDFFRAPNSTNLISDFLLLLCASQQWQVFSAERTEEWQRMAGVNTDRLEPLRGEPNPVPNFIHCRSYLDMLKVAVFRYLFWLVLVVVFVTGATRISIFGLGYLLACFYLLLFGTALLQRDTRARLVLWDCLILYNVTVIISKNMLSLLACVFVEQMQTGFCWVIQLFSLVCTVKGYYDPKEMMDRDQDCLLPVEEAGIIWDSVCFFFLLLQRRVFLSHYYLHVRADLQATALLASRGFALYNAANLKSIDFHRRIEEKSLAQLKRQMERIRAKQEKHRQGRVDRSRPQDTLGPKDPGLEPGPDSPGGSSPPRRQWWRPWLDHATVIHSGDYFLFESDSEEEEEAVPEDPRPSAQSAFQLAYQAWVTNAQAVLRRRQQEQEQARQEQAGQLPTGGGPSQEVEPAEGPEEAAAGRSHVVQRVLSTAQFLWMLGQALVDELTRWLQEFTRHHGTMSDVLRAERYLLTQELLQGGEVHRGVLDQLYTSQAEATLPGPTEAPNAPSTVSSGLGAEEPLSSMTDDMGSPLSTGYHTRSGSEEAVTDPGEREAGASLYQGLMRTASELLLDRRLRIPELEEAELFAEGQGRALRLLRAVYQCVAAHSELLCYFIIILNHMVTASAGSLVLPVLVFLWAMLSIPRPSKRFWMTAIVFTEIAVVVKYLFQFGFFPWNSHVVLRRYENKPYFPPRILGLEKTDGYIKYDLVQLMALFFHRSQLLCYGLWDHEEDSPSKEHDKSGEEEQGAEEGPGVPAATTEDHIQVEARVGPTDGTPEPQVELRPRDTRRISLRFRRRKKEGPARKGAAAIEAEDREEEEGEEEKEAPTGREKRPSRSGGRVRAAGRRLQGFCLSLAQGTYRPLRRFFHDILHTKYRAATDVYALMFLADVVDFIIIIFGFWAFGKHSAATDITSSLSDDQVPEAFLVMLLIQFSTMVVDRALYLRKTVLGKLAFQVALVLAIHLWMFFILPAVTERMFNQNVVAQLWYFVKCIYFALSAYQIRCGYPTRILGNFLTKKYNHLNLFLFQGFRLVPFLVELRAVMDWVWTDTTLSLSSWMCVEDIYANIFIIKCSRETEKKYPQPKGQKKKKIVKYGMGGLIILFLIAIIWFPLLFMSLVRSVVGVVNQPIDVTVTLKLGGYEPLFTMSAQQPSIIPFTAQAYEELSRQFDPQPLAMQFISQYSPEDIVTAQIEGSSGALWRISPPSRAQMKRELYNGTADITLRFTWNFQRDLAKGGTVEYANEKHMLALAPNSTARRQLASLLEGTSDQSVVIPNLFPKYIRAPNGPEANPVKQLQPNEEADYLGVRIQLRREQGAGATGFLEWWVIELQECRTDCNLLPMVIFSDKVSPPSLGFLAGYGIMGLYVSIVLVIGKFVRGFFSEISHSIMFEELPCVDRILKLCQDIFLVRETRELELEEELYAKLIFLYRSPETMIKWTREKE

Clc1cccc(Cl)c1CSc1nnc(-c2cnccn2)s1 [Yoda1]
EC50 [1]: 710 nM | EC50 (mouse Piezo1): 330 nM
